Values quoted from earlier work, collected in patent publication US20250049835A1, “COMPOSITIONS FOR ALTERING CYCLIC ADP-RIBOSE SECONDARY MESSENGER SIGNALLING” (Yeda Research and Development Co. Ltd., priority 2022, published 2025).

Biological target: T1, Bacillus cereus MSX-D12 ThsA enzyme (Bacillus cereus, UniProt J8G6Z1)
T1 construct: The reporter enzyme ThsA was expressed and purified as described previously; made in house
T1 sequence (J8G6Z1 1-476): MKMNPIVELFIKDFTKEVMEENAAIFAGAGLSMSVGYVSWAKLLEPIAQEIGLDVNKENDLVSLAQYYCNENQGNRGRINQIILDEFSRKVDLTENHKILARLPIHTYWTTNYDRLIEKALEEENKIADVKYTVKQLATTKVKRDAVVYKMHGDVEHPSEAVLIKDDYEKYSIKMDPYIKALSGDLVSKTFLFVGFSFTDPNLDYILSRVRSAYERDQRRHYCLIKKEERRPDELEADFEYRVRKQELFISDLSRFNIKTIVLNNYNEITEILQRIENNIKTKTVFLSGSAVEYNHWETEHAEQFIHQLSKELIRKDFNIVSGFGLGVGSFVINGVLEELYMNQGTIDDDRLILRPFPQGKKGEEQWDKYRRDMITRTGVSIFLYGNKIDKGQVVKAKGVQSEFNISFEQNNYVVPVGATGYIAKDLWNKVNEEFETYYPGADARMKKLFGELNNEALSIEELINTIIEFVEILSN
Details: previously shown

SMILES: Nc1ncnc2c1ncn2[C@@H]1O[C@@H]2COP(=O)(O)OP(=O)(O)OC[C@H]3O[C@@H](OC1C2O)C(O)C3O (stereo partly shown) [1′-2′ gcADPR]
- Activation of ThsA by cADPR isomer produced by plant TIR proteins: can activate the Theoris effector ThsA
